# Measurements published in patent US8834899B2, “Photodynamic therapy-generated mesothelioma vaccine” (The Trustees of the University of Pennsylvania, priority 2006, dated 2014).
# System: AB1 murine mesothelioma cells
# Assay: Clonogenic assay after Photofrin PDT
# Format: cell-based
# Conditions: for % Cell Kill / Clonogenic Results (colonies) / Clonogenic Results, Averaged numbers: Photofrin 24 hours
# Description: Initial tests were conducted in order to explore the possibility of generating inactivated whole tumor cells from PDT. Three variables were manipulated: Photofrin® incubation time, Photofrin® dosage, and light dosage. Since Photofrin® incubation times may determine cellular uptake—either just within the membrane or further into the cytoplasm—the cells were incubated for either 3-hours or 24-hours, followed by a 3-hour incubation in drug-free media. Second, cells were given a Photofrin dose of either 10 μg/mL or 25 μg/mL. Dosages were determined by consulting both past papers and another PDT research laboratory. Lastly, light dosage was varied. The light source was a Laserscope KTP/YAG laser with a 630 nm Dye Module. […] Laser light dosage was measured in fluence or j/cm^2. Light dosages ranged from 0.125 j/cm^2 to 1.0 j/cm^2.
# Later in the study, dose-response curves followed by clonogenic assays, were performed in order to determine appropriate PDT light dosages for complete cell killing. In these tests, cells were incubated for 24-hours and exposed to high light dosages ranging from 1.0 j/cm^2 to 3.0 j/cm^2. The clonogenic assay measured cell plating efficiency and proliferation and involved plating cells at very low concentrations. After one week, resultant colonies that had formed were counted and compared against controls that had not been lit.
# All three factors were modified with the intent of producing complete cell death. Cells were incubated in 25 μg/mL of Photofrin® for 3 hours and lit with 2.0 j/cm^2 of light at 630 nm. […] A clonogenic assay was performed to explore the dose-response relationship at this level of light, and the results are summarized in Table 2. For the assay, cells were incubated in 25 μg/mL of Photofrin® for 24 hours and lit with 1.0 to 3.0 j/cm^2 of light. […] After this test, PDT vaccines were generated by incubating cells in 25 μg/mL of Photofrin® for 24 hours and lit with 3.0 j/cm^2 of light.
# [1] = 250 cells per plate, 1.5 j/cm^2
# [2] = 500 cells per plate, 1.0 j/cm^2
# [3] = 500 cells per plate, 1.5 j/cm^2
# [4] = 500 cells per plate, 2.0 j/cm^2
# [5] = 500 cells per plate, 2.0 j/cm^2 (100 mill), lit at high cell concentration
# [6] = 500 cells per plate, 2.5 j/cm^2
# [7] = 500 cells per plate, 3.0 j/cm^2
# [8] = 500 cells per plate, 3.0 j/cm^2 (100 mill), lit at high cell concentration
# [9] = 1000 cells per plate, 1.0 j/cm^2
# [10] = 1000 cells per plate, 1.5 j/cm^2
# [11] = 1000 cells per plate, 2.0 j/cm^2
# [12] = 1000 cells per plate, 2.0 j/cm^2 (100 mill), lit at high cell concentration
# [13] = 1000 cells per plate, 2.5 j/cm^2
# [14] = 1000 cells per plate, 3.0 j/cm^2
# [15] = 1000 cells per plate, 3.0 j/cm^2 (100 mill), lit at high cell concentration
substance,measurement,setting,value
Photofrin,cell kill in clonogenic assay (in words),"25 μg/mL Photofrin 24 hours, all conditions, light 1.0 to 3.0 j/cm^2 at 630 nm",nearly complete cell kill in all conditions
same,% Cell Kill,[1],100%
same,Clonogenic Results (colonies),[1],0
same,"Clonogenic Results, Averaged numbers",[1],0.00
same,% Cell Kill,[2],100%
same,Clonogenic Results (colonies),[2],0
same,"Clonogenic Results, Averaged numbers",[2],0.00
same,% Cell Kill,[3],100%
same,Clonogenic Results (colonies),[3],0
same,"Clonogenic Results, Averaged numbers",[3],0.00
same,% Cell Kill,[4],100%
same,Clonogenic Results (colonies),[4],0
same,"Clonogenic Results, Averaged numbers",[4],0.00
same,% Cell Kill,[5],100%
same,Clonogenic Results (colonies),[5],0
same,"Clonogenic Results, Averaged numbers",[5],0
same,% Cell Kill,[6],100%
same,Clonogenic Results (colonies),[6],0
same,"Clonogenic Results, Averaged numbers",[6],0
same,% Cell Kill,[7],100%
same,Clonogenic Results (colonies),[7],0
same,"Clonogenic Results, Averaged numbers",[7],0
same,% Cell Kill,[8],99.67%
same,"Clonogenic Results, Averaged numbers",[8],0.33
same,% Cell Kill,[9],99.85%
same,"Clonogenic Results, Averaged numbers",[9],0.33
same,% Cell Kill,[10],100.00%
same,Clonogenic Results (colonies),[10],0
same,"Clonogenic Results, Averaged numbers",[10],0.00
same,% Cell Kill,[11],99.85%
same,"Clonogenic Results, Averaged numbers",[11],0.33
same,% Cell Kill,[12],100%
same,Clonogenic Results (colonies),[12],0
same,"Clonogenic Results, Averaged numbers",[12],0
same,% Cell Kill,[13],100%
same,Clonogenic Results (colonies),[13],0
same,"Clonogenic Results, Averaged numbers",[13],0
same,% Cell Kill,[14],100%
same,Clonogenic Results (colonies),[14],0
same,"Clonogenic Results, Averaged numbers",[14],0
same,% Cell Kill,[15],99.70%
same,"Clonogenic Results, Averaged numbers",[15],0.67
